From PubChem BioAssay AID330 (DTP/NCI, 2004) come the findings set out here.

The structures appear in SMILES notation. “And” between values parts separate entries of the source, which are not always exact repeats. Equal entries are not always repeated. Toxic doses and inconclusive results are not listed.

The subject of this assay is P388 leukemia ip, CD2F1 mice, survival T/C. The experiment in a line: NCI In Vivo Anticancer Drug Screen. Data for tumor model P388 Leukemia (intraperitoneal) in CD2F1 (CDF1) mice. Conditions: endpoint: median survival time, higher = longer survival. Summed up:
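Mice carrying the transplanted tumor received test compound or vehicle. Survival was recorded in each group, and the value is the treated-group measurement divided by that of the vehicle-treated control group.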

[1] abbreviates: dose: 100.0 mg/kg/injection, schedule: Q04DX002 (ip), vehicle: saline with Tween-80.
The mark [2] stands for this setting: dose: 200.0 mg/kg/injection, schedule: Q04DX002 (ip), vehicle: saline with Tween-80.
Setting [3] is: dose: 400.0 mg/kg/injection, schedule: Q04DX002 (ip), vehicle: saline with Tween-80.
The mark [4] stands for this setting: dose: 50.0 mg/kg/injection, schedule: Q01DX009 (ip), vehicle: Klucel (hydroxypropylcellulose) (HPC).
Where [5] appears, read: dose: 100.0 mg/kg/injection, schedule: Q01DX009 (ip), vehicle: Klucel (hydroxypropylcellulose) (HPC).
[6] abbreviates: dose: 200.0 mg/kg/injection, schedule: Q01DX009 (ip), vehicle: Klucel (hydroxypropylcellulose) (HPC).
[7] abbreviates: dose: 50.0 mg/kg/injection, schedule: Q01DX005 (ip), vehicle: saline with Tween-80.
Where [8] appears, read: dose: 100.0 mg/kg/injection, schedule: Q01DX005 (ip), vehicle: saline with Tween-80.
Setting [9] is: dose: 200.0 mg/kg/injection, schedule: Q01DX005 (ip), vehicle: saline with Tween-80.

With `Cc1ccc(S(=O)(=O)N/N=C/c2ccc(O)c(Cl)c2)cc1`, the T/C is 102 % of control (dose: 12.5 mg/kg/injection, schedule: Q01DX005 (ip), vehicle: distilled water + Tween-80); 102 % of control (dose: 25.0 mg/kg/injection, schedule: Q01DX005 (ip), vehicle: distilled water + Tween-80); 98 % of control (dose: 50.0 mg/kg/injection, schedule: Q01DX005 (ip), vehicle: distilled water + Tween-80); 100 % of control (dose: 100.0 mg/kg/injection, schedule: Q01DX005 (ip), vehicle: distilled water + Tween-80); 99 % of control (dose: 200.0 mg/kg/injection, schedule: Q01DX005 (ip), vehicle: distilled water + Tween-80).

Turning to `CC1C(=O)OC2C1CCC1(C)CC(Br)C(=O)C(C)C21` (configuration not stated), the T/C runs as follows: under setting [1], 102 % of control; under setting [2], 102 % of control and 100 % of control; under setting [3], 104 % of control and 101 % of control.

As to `CN(C)CCNC(=Cc1ccc2ccccc2[n+]1C)NCCN(C)C`, the T/C reads like this: (dose: 30.0 mg/kg/injection, schedule: Q01DX005 (ip), vehicle: saline) 97 % of control; (dose: 60.0 mg/kg/injection, schedule: Q01DX005 (ip), vehicle: saline) 101 % of control.

Regarding `CCCCN1C(=O)C(=O)N(Cc2ccco2)C1=O`, the T/C by setting is: under setting [4], 98 % of control; under setting [5], 104 % of control; under setting [6], 106 % of control.

Turning to `NC(=S)Oc1ccccc1`, the T/C by setting is: (dose: 6.25 mg/kg/injection, schedule: Q01DX009 (ip), vehicle: saline with Tween-80) 103 % of control; (dose: 12.5 mg/kg/injection, schedule: Q01DX009 (ip), vehicle: saline with Tween-80) 100 % of control; (dose: 25.0 mg/kg/injection, schedule: Q01DX009 (ip), vehicle: saline with Tween-80) 106 % of control; (dose: 100.0 mg/kg/injection, schedule: Q01DX009 (ip), vehicle: saline with Tween-80) 93 % of control; (dose: 200.0 mg/kg/injection, schedule: Q01DX009 (ip), vehicle: saline with Tween-80) 93 % of control.

For `CC1NNC(=O)C1(Br)Br` (configuration not stated), the T/C is 100 % of control (dose: 6.25 mg/kg/injection, schedule: Q01DX009 (ip), vehicle: gum acacia) and 91 % of control (dose: 12.5 mg/kg/injection, schedule: Q01DX009 (ip), vehicle: gum acacia).

Consider `CC1CC(C)CC(C)C(O)/C(C#N)=C/C=C/CC(C2CCCC2C(=O)O)OC(=O)CC(O)C(C)C1` (configuration not stated), for which the T/C is 163 % of control and 169 % of control (dose: 0.5 mg/kg/injection, schedule: Q01DX009 (ip), vehicle: Klucel (hydroxypropylcellulose) (HPC)); 150 % of control (dose: 0.78 mg/kg/injection, schedule: Q01DX009 (ip), vehicle: Klucel (hydroxypropylcellulose) (HPC)); 151 % of control and 152 % of control (dose: 1.0 mg/kg/injection, schedule: Q01DX009 (ip), vehicle: Klucel (hydroxypropylcellulose) (HPC)); 151 % of control (dose: 1.56 mg/kg/injection, schedule: Q01DX009 (ip), vehicle: Klucel (hydroxypropylcellulose) (HPC)); 153 % of control (dose: 3.13 mg/kg/injection, schedule: Q01DX009 (ip), vehicle: Klucel (hydroxypropylcellulose) (HPC)).

For the molecule `CC(C)(C)OP(=S)(OC(C)(C)C)OC(C)(C)C`, the T/C under setting [1] is 96 % of control, the T/C under setting [2] is 108 % of control and the T/C under setting [3] was 106 % of control.

Consider `CN(C)CCNc1ccc(NCCNCCO)c2c1C(=O)c1ccccc1C2=O`, for which the T/C is 151 % of control (dose: 10.0 mg/kg/injection, schedule: Q04DX002 (ip), vehicle: saline); 173 % of control (dose: 20.0 mg/kg/injection, schedule: Q04DX002 (ip), vehicle: saline); 192 % of control (dose: 40.0 mg/kg/injection, schedule: Q04DX002 (ip), vehicle: saline); 192 % of control (dose: 80.0 mg/kg/injection, schedule: Q04DX002 (ip), vehicle: saline).

In the case of `CC(C)(C)OC(=O)N/C=C/c1ccccc1`, the T/C is, setting by setting: (dose: 100.0 mg/kg/injection, schedule: Q04DX002 (ip), vehicle: suspension in saline) 101 % of control; (dose: 200.0 mg/kg/injection, schedule: Q04DX002 (ip), vehicle: suspension in saline) 92 % of control; (dose: 400.0 mg/kg/injection, schedule: Q04DX002 (ip), vehicle: suspension in saline) 94 % of control.

As for `Nc1nc2ccc([N+](=O)[O-])cc2[nH]1`, the T/C runs as follows: under setting [4], 99 % of control; under setting [5], 101 % of control; under setting [6], 90 % of control.

As to `BOc1ccc(C)cc1CN(C)Cc1ccccc1`, the T/C reads like this: (dose: 100.0 mg/kg/injection, schedule: Q04DX002 (ip), vehicle: Klucel (hydroxypropylcellulose) (HPC)) 103 % of control; (dose: 200.0 mg/kg/injection, schedule: Q04DX002 (ip), vehicle: Klucel (hydroxypropylcellulose) (HPC)) 99 % of control; (dose: 400.0 mg/kg/injection, schedule: Q04DX002 (ip), vehicle: Klucel (hydroxypropylcellulose) (HPC)) 104 % of control.

`CC1(O)CC[N+](C)(C)CC1c1ccccc1` (configuration not stated): the T/C reads like this: (dose: 50.0 mg/kg/injection, schedule: Q04DX003 (ip), vehicle: saline) 118 % of control; (dose: 100.0 mg/kg/injection, schedule: Q04DX003 (ip), vehicle: saline) 113 % of control.

With `CC1=CO/C(=C\[Si](C)(C)C)OC1c1ccccc1` (configuration not stated), the T/C is, setting by setting: (dose: 100.0 mg/kg/injection, schedule: Q01DX001 (ip), vehicle: saline with Tween-80) 104 % of control; (dose: 200.0 mg/kg/injection, schedule: Q01DX001 (ip), vehicle: saline with Tween-80) 108 % of control; (dose: 400.0 mg/kg/injection, schedule: Q01DX001 (ip), vehicle: saline with Tween-80) 103 % of control.

For the molecule `CSCNC(=O)Nc1ccccc1`, the T/C under setting [7] is 98 % of control, the T/C under setting [8] was 100 % of control and the T/C under setting [9] is 104 % of control.

Take `CC(NC(=O)OC(C)(C)C)C(=O)NC(C)C(=O)NC(C)C(=O)OCc1ccccc1` (configuration not stated): the T/C reads like this: under setting [7], 99 % of control; under setting [8], 99 % of control; under setting [9], 101 % of control.

As for `CN(CCCCN(C)CCOS(C)(=O)=O)CCOS(C)(=O)=O`, the T/C was 157 % of control (dose: 0.05 mg/kg/injection, schedule: Q01DX009 (ip), vehicle: saline); 178 % of control (dose: 0.1 mg/kg/injection, schedule: Q01DX009 (ip), vehicle: saline); 156 % of control (dose: 0.3 mg/kg/injection, schedule: Q01DX009 (ip), vehicle: saline); 156 % of control (dose: 0.6 mg/kg/injection, schedule: Q01DX009 (ip), vehicle: saline); 168 % of control (dose: 0.8 mg/kg/injection, schedule: Q04DX003 (ip), vehicle: saline); 172 % of control (dose: 1.2 mg/kg/injection, schedule: Q04DX003 (ip), vehicle: saline). In addition, the T/C is, setting by setting: (dose: 1.25 mg/kg/injection, schedule: Q01DX009 (ip), vehicle: saline) 230 % of control; (dose: 1.25 mg/kg/injection, schedule: Q04DX003 (ip), vehicle: saline with Tween-80) 180 % of control; (dose: 1.8 mg/kg/injection, schedule: Q04DX003 (ip), vehicle: saline) 181 % of control; (dose: 2.5 mg/kg/injection, schedule: Q04DX003 (ip), vehicle: saline with Tween-80) 176 % of control; (dose: 5.0 mg/kg/injection, schedule: Q04DX003 (ip), vehicle: saline with Tween-80) 200 % of control; (dose: 5.0 mg/kg/injection, schedule: Q04DX003 (ip), vehicle: saline) 204 % of control. Besides, the T/C (dose: 10.0 mg/kg/injection, schedule: Q04DX003 (ip), vehicle: saline) was 86 % of control.

On to `COC(=O)C(CC(=O)c1cc2c(cc1Br)OCO2)(Cc1cc(OC)c(OC)c(OC)c1I)C(=O)OC`, for which the T/C is 97 % of control (dose: 3.12 mg/kg/injection, schedule: Q01DX009 (ip), vehicle: saline); 98 % of control (dose: 6.25 mg/kg/injection, schedule: Q01DX009 (ip), vehicle: saline); 97 % of control (dose: 12.5 mg/kg/injection, schedule: Q01DX009 (ip), vehicle: saline); 98 % of control (dose: 25.0 mg/kg/injection, schedule: Q01DX009 (ip), vehicle: saline); 100 % of control (dose: 100.0 mg/kg/injection, schedule: Q01DX001 (ip), vehicle: saline); 98 % of control (dose: 200.0 mg/kg/injection, schedule: Q01DX001 (ip), vehicle: saline). The T/C (dose: 400.0 mg/kg/injection, schedule: Q01DX001 (ip), vehicle: saline) was 100 % of control.
